Experimental data taken from patent publication US9616062B2, “Cyclin dependent kinase inhibitors and methods of use” (priority 2009, dated 2017).

Assays:
[1] = tested on: murine splenic B and T cells; experiment: Splenic lymphocyte proliferation in mice (Ki67 or BrdU staining); type: in vivo, mouse; conditions: 24 hours treatment, unstimulated mice
Protocol: (§1) Animals were treated with CDK4/6 inhibitor (PD0332991, open bars) or vehicle (shaded bars) for 24 hours and euthanized. Splenocytes were isolated and stained for B and T cell markers. After gating on appropriate populations, Ki67 staining was performed as an indicator of proliferation and S-phase. Error bars show +/−SEM.
FIG. 22: CDK4/6 inhibitors block B-cell proliferation. Animals were treated with CDK4/6 inhibitor (150 mg/kg by daily oral gavage) or vehicle for 4 days, and BrdU in the drinking water for 3 days. After BrdU treatment, animals were euthanized. Splenocytes were isolated and stained for B cell markers. After gating on appropriate populations, BrdU staining was performed as an indicator of proliferation.
(§2) Cohorts of wild type mice were treated with vehicle or a CDK4/6 inhibitor as in FIG. 11. […] Unstimulated mice were treated for 24 hours with PD0332991 and homeostatic B cell proliferation measured by Ki67 staining after appropriate sorting. Similar results were obtained using BrdU incorporation to measure splenic B cell proliferation. Similar experiments were undertaken in human cells with B cell receptor stimulation as described in FIG. 12.

[2] = tested on: murine memory and naive T cells; experiment: Homeostatic T cell proliferation in mice (BrdU incorporation, Ki67); type: in vivo, mouse
Protocol: FIG. 11A: Acute inhibition of CDK4/6 selectively suppresses memory T cell homeostatic proliferation in mice. Mice were treated with PD0332991 (150 mg/kg by oral gavage). Proliferation of T-cells were assessed using BrdU and flow cytometry.
as §1
(§3) Acute, pharmacologic inhibition of CDK4/6 suppresses lymphocyte proliferation with the most pronounced effect on memory T cell homeostatic proliferation and germinal center formation in mice. To determine whether inhibiting CDK4/6 affects memory cell generation and maintenance, mice were treated with selective CDK4/6 inhibitors, PD 0332991 or an unrelated selective CDK4/6 inhibitor, 2BrIC. 2BrIC was synthesized by OTAVA Chemicals (Kiev, Ukraine) and can be prepared according to methods described in Zhu et al., J. Med. Chem. 46, 2027-2030 (2003).

[3] = tested on: primary human renal proximal tubule epithelial cells; experiment: Cell proliferation, CellTiter-Glo, 72 hours; type: cell-based; conditions: 0, 10 nM-3 μM, 72 hours post exposure
Protocol: FIG. 3: CDK4/6 inhibition blocks proliferation of primary human renal proximal tubule epithelial cells. Cells were treated with varying concentrations of PD0332991 for 72 hours. Following incubation, cell proliferation was quantified using CellTiter-Glo® (Promega, Madison, Wis., United States of America). Data represent the mean of four replicates (relative light units, RLU) +/−standard deviation.
Primary normal human renal proximal epithelial cells (American Type Culture Collection (ATCC), Manassas, Va., United States of America) were cultured in renal epithelial cell basal media supplemented with renal epithelial cell growth kit according to the manufacturer's recommendations. […] For the γH2AX assay, cells were fixed, permeabilized, and stained with anti-γH2AX as per γH2AX Flow Kit (Millipore, Billerica, Mass., United States of America). γH2AX levels were assessed by flow cytometry. Cell proliferation was assessed by seeding 1×10^3 cells per well in a 96-well tissue culture plate in 100 μL of growth medium. […] At the end of the recovery period, cell number was quantified using CellTiter-Glo® (Promega, Fitchburg, Wis., United States of America) or WST-1 reagent (TaKaRa Bio USA, Madison, Wis., United States of America). […] 100 μL of TOXILIGHT™ reagent is added and incubated for 5 minutes and read in a luminometer at 1 second/well. […]

[4] = tested on: germinal center formation; experiment: Germinal center formation in mice (Ki67 immunohistochemistry); type: in vivo, mouse; conditions: 150 mg/kg by oral gavage
Protocol: Mice were treated with PD0332991 (150 mg/kg by oral gavage). Germinal center formation was assessed by Ki67 immunohistochemistry.
as §3, §2

With `CC(=O)c1c(C)c2cnc(Nc3ccc(N4CCNCC4)cn3)nc2n(C2CCCC2)c1=O` [PD0332991, 6-acetyl-8-cyclopentyl-5-methyl-2-(5-piperazin-1-yl-pyridin-2-ylamino)-8H-pyrido-[2,3-d]-pyrimidin-7-one] the “splenocyte B and T cell proliferation (Ki67 staining)” value [1] was “blocks T and B cell proliferation”, the “in vivo BrdU incorporation of CD4+ and CD8+ murine T cells” value ([2]; 150 mg/kg by oral gavage) was “greatest effects seen in the CD44+CD25+ memory cells” and the “homeostatic proliferation of memory vs naive T cells (BrdU incorporation, Ki67 expression)” value ([2]; murine cells, acute inhibition) was “more significant decrease in homeostatic proliferation of memory T cells than naive T cells”. For the same compound, the “inhibition of cell proliferation vs DMSO control” value [3] was “clear dose dependent inhibition of cell proliferation” and the “germinal center formation (Ki67)” value [4] was “selectively suppresses germinal center formation”.
